Test results from US4143166A, “7[(2-Hydroxyamino-2-disubstituted phenyl-acetamido)-]3-heterocyclicthio-3-cephem-4-carboxylic acids” (Fujisawa Pharmaceutical Co., Ltd., priority 1975, dated 1979).
Converted amounts (≈) assume the structure as drawn. Where two headings read alike, the source gives them in different places.

How the values were obtained:
Assay type in all cases: cell-based
[1] = test system: Sh. flexneri2a; assay: In vitro antibacterial activity, two-fold agar-plate dilution method (MIC), Sh. flexneri 2a; conditions: Shigella flexneri, HI-agar, 37° C., 20 hours, 10^8 viable cells per ml, read-out: minimal inhibitory concentration (MIC)
Experimental: (§1) In vitro antibacterial activity was determined by the two-fold agar-plate dilution method as described below.
(§2) One loopful of an overnight culture of each test strain in Trypticase-soy broth (10^8 viable cells per ml) was streaked on heart infusion agar (HI-agar) containing graded concentrations of antibiotics, and the minimal inhibitory concentration (MIC) was expressed in terms of μg/ml after incubation at 37° C. for 20 hours.

[2] = test system: Pr. mirabilis 525; assay: In vitro antibacterial activity, two-fold agar-plate dilution method (MIC), Pr. mirabilis 525; conditions: read-out: minimal inhibitory concentration (MIC)
Experimental: as §1, §2

[3] = test system: Sal. Enteritidis; assay: In vitro antibacterial activity, two-fold agar-plate dilution method (MIC), Sal. Enteritidis; conditions: Salmonella enterica, read-out: minimal inhibitory concentration (MIC)
Experimental: as §1, §2

[4] = test system: E coli 341; assay: In vitro antibacterial activity, two-fold agar-plate dilution method (MIC), E coli 341; conditions: read-out: minimal inhibitory concentration (MIC)
Experimental: as §1, §2

[5] = test system: Ps. aeruginosa721; assay: In vitro antibacterial activity, two-fold agar-plate dilution method (MIC), Ps. aeruginosa 721; conditions: Pseudomonas aeruginosa, read-out: minimal inhibitory concentration (MIC)
Experimental: as §1, §2

[6] = test system: Kl. pneumoniae 417; assay: In vitro antibacterial activity, two-fold agar-plate dilution method (MIC), Kl. pneumoniae 417; conditions: Klebsiella pneumoniae, HI-agar, 37° C., 20 hours, 10^8 viable cells per ml, read-out: minimal inhibitory concentration (MIC)
Experimental: as §1, §2

[7] = Proteus mirabilis, Pr. mirabilis 525, HI-agar, 37° C., 20 hours, 10^8 viable cells per ml
[8] = Sal. Enteritidis, HI-agar, 37° C., 20 hours, 10^8 viable cells per ml
[9] = E coli 341, HI-agar, 37° C., 20 hours, 10^8 viable cells per ml
[10] = Ps. aeruginosa721, HI-agar, 37° C., 20 hours, 10^8 viable cells per ml

Cc1nnc(SCC2=C(C(=O)O)N3C(=O)C(NC(=O)/C(=N\O)c4cccc(O)c4)C3SC2)s1 (stereo not drawn) [Test Compound (5), 7-[2-Hydroxyimino-2-(3-hydroxyphenyl)acetamido]-3-(5-methyl-1,3,4-thiadiazol-2-yl)thiomethyl-3-cephem-4-carboxylic acid (syn isomer)]
MIC [1]: 0.39 µg/mL (≈ 0.768 µM) | MIC [2, 7]: 3.13 µg/mL (≈ 6.17 µM) | MIC [3, 8]: 0.2 µg/mL (≈ 0.394 µM) | MIC [4, 9]: 0.78 µg/mL (≈ 1.54 µM) | MIC [5, 10]: 6.25 µg/mL (≈ 12.3 µM) | MIC [6]: 0.78 µg/mL (≈ 1.54 µM)

NC(=O)OCC1=C(C(=O)O)N2C(=O)C(NC(=O)/C(=N\O)c3cccc(O)c3)C2SC1 (stereo not drawn) [Test Compound (9), Sodium 7-[2-hydroxyimino-2-(3-hydroxyphenyl)acetamido]-3-carbamoyloxymethyl-3-cephem-4-carboxylate (syn isomer)]
MIC [1]: 0.78 µg/mL | MIC [2, 7]: 0.78 µg/mL | MIC [3, 8]: 0.78 µg/mL | MIC [5, 10]: 6.25 µg/mL | MIC [6]: 0.2 µg/mL

CC(=O)OCC1=C(C(=O)O)N2C(=O)C(NC(=O)/C(=N\O)c3ccc(O)c(Cl)c3)C2SC1 (stereo not drawn) [Test Compound (3), Sodium 7-[2-hydroxyimino-2-(3-chloro-4-hydroxyphenyl)acetamido]cephalosporanate (syn isomer)]
MIC [1]: 3.13 µg/mL | MIC [2, 7]: 0.39 µg/mL | MIC [3, 8]: 0.78 µg/mL | MIC [4, 9]: 6.25 µg/mL | MIC ([5]; 20 h): 3.13 µg/mL | MIC [6]: 3.13 µg/mL

O=C(O)C1=C(CSc2nncs2)CSC2C(NC(=O)/C(=N\O)c3cccc(O)c3)C(=O)N12 (stereo not drawn) [Test Compound (4), 7-[2-Hydroxyimino-2-[3-hydroxyphenyl)acetamido]-3-(1,3,4-thiadiazol-2-yl)thiomethyl-3-cephem-4-carboxylic acid (syn isomer)]
MIC [1]: 0.39 µg/mL (≈ 0.79 µM) | MIC [2, 7]: 1.56 µg/mL (≈ 3.16 µM) | MIC [3, 8]: 0.39 µg/mL (≈ 0.79 µM) | MIC [4, 9]: 0.78 µg/mL (≈ 1.58 µM) | MIC [5, 10]: 12.5 µg/mL (≈ 25.3 µM) | MIC [6]: 3.13 µg/mL (≈ 6.34 µM)

Cc1nnc(SCC2=C(C(=O)O)N3C(=O)C(NC(=O)/C(=N\O)c4ccccc4)C3SC2)s1 (stereo not drawn) [Test Compound (A), 7-(2-Hydroxyimino-2-phenylacetamido)-3-(5-methyl-1,3,4-thiadiazol-2-yl)thiomethyl-3-cephem-4-carboxylic acid (syn isomer), reference compound]
MIC [1]: 6.25 µg/mL (≈ 12.7 µM) | MIC [2, 7]: 25 µg/mL (≈ 50.9 µM) | MIC ([3]; ENTERITIDIS, 20 h): 6.25 µg/mL (≈ 12.7 µM) | MIC ([4]; 20 h): 12.5 µg/mL (≈ 25.4 µM) | MIC [5, 10]: 50 µg/mL (≈ 102 µM) | MIC [6]: 12.5 µg/mL (≈ 25.4 µM)

Cn1nnnc1SCC1=C(C(=O)O)N2C(=O)C(NC(=O)/C(=N\O)c3cccc(O)c3)C2SC1 (stereo not drawn) [Test Compound (2), Sodium 7-(2-hydroxyimino-2-(3-hydroxyphenyl)acetamido]-3-(1-methyl-1H-tetrazol-5-yl)thiomethyl-3-cephem-4-carboxylate (syn isomer)]
MIC [1]: 0.78 µg/mL | MIC [2, 7]: 1.56 µg/mL | MIC [3, 8]: 1.56 µg/mL | MIC [4, 9]: 0.78 µg/mL | MIC [5, 10]: 100 µg/mL | MIC [6]: 0.78 µg/mL

Cn1nnnc1SCC1=C(C(=O)O)N2C(=O)C(NC(=O)/C(=N\O)c3ccc(O)cc3)C2SC1 (stereo not drawn) [Test Compound (1), Sodium 7-[2-hydroxyimino-2-(4-hydroxyphenyl)acetamido]-3-(1-methyl-1H-tetrazol-5-yl)thiomethyl-3-cephem-4-carboxylate (syn isomer)]
MIC [1]: 0.78 µg/mL | MIC [2, 7]: 1.56 µg/mL | MIC ([3]; ENTERITIDIS, 20 h): 3.13 µg/mL | MIC [4, 9]: 1.56 µg/mL | MIC [5, 10]: 25 µg/mL | MIC [6]: 3.13 µg/mL

CCOC(=O)O/N=C(\C(=O)NC1C(=O)N2C(C(=O)O)=C(CSc3nnnn3C)CSC12)c1cccc(O)c1 (stereo not drawn) [Test Compound (7), 7-[2-Ethoxycarbonyloxyimino-2-(3-hydroxyphenyl)acetamido]-3-(1-methyl-1H-tetrazol-5-yl)thiomethyl-3-cephem-4-carboxylic acid (syn isomer)]
MIC [1]: 1.56 µg/mL (≈ 2.77 µM) | MIC [2, 7]: 0.39 µg/mL (≈ 0.692 µM) | MIC [3, 8]: 0.2 µg/mL (≈ 0.355 µM) | MIC [4, 9]: 3.13 µg/mL (≈ 5.55 µM) | MIC [5, 10]: 25 µg/mL (≈ 44.4 µM) | MIC [6]: 0.39 µg/mL (≈ 0.692 µM)

Cn1nnnc1SCC1=C(C(=O)O)N2C(=O)C(NC(=O)/C(=N\O)c3ccc(O)c([N+](=O)[O-])c3)C2SC1 (stereo not drawn) [Test Compound (10), 7-[2-Hydroxyimino-2-(3-nitro-4-hydroxyphenyl)acetamido]-3-(1-methyl-1H-tetrazol-5-yl)thiomethyl-3-cephem-4-carboxylic acid (syn isomer)]
MIC [1]: 1.56 µg/mL (≈ 2.91 µM) | MIC [2, 7]: 0.2 µg/mL (≈ 0.373 µM) | MIC [3, 8]: 0.2 µg/mL (≈ 0.373 µM) | MIC [4, 9]: 3.13 µg/mL (≈ 5.83 µM) | MIC [6]: 0.39 µg/mL (≈ 0.727 µM)

Cn1nnnc1SCC1=C(C(=O)O)N2C(=O)C(NC(=O)/C(=N\OC(=O)c3ccccc3)c3cccc(O)c3)C2SC1 (stereo not drawn) [Test Compound (6), 7-[2-Benzoyloxyimino-2-(3-hydroxyphenyl)acetamido]-3-(1-methyl-1H-tetrazol-5-yl)thiomethyl-3-cephem-4-carboxylic acid (syn isomer)]
MIC [1]: 0.78 µg/mL (≈ 1.31 µM) | MIC [2, 7]: 0.78 µg/mL (≈ 1.31 µM) | MIC [3, 8]: 0.39 µg/mL (≈ 0.655 µM) | MIC [4, 9]: 1.56 µg/mL (≈ 2.62 µM) | MIC [5, 10]: 12.5 µg/mL (≈ 21 µM) | MIC [6]: 0.39 µg/mL (≈ 0.655 µM)

CC(=O)OCC1=C(C(=O)O)N2C(=O)C(NC(=O)/C(=N\O)c3cccc(O)c3)C2SC1 (stereo not drawn) [Test Compound (8), 7-[2-Hydroxyimino-2-(3-hydroxphenyl)acetamido]cephalosporanic acid (syn isomer)]
MIC [1]: 0.78 µg/mL (≈ 1.79 µM) | MIC ([2]; Proteus mirabilis, 525, 20 h): 1.56 µg/mL (≈ 3.58 µM) | MIC ([3]; ENTERITIDIS, 20 h): 1.56 µg/mL (≈ 3.58 µM) | MIC [4, 9]: 0.78 µg/mL (≈ 1.79 µM) | MIC [5, 10]: 25 µg/mL (≈ 57.4 µM) | MIC [6]: 1.56 µg/mL (≈ 3.58 µM)
